We go through 10 compounds from PubChem BioAssay (NCI).

“And” between values parts separate entries of the source, which are not always exact repeats. Identical values can stand only once.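 The compound was tested at five concentrations on cells cultured in 96-well plates, with a 48-hour exposure period. At the GI50, growth is halved. The concentration for full growth arrest is given as TGI.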

Some test systems named below: OVCAR-3 ovarian; SK-OV-3 ovarian; MALME-3M melanoma; SF-268 CNS; NCI-H23 lung; SW-620 colon; UACC-62 melanoma; U251 CNS; NCI-H460 lung; CAKI-1 renal; PC-3 prostate; SNB-75 CNS; UO-31 renal; HCC-2998 colon.
Experiment in all cases: NCI tumour cell line growth inhibition, 48 h

With `CCOC(=O)c1cnc(N(C)C)nc1SC(=N)N`, the TGI in the experiment on OVCAR-3 ovarian, in the experiment on SK-OV-3 ovarian, with MALME-3M melanoma, in the experiment on SF-268 CNS, in the experiment with NCI-H23 lung and in the experiment with SW-620 colon was over 100 µM in each case. Moreover, the TGI with UACC-62 melanoma, with U251 CNS, in the experiment on NCI-H460 lung, in the experiment on CAKI-1 renal, with PC-3 prostate and in the experiment on SNB-75 CNS was over 100 µM each time.
In the case of `CCOc1cc(C2CC(c3ccc(NS(=O)(=O)c4cc([N+](=O)[O-])ccc4C)cc3)=NN2S(=O)(=O)c2cc([N+](=O)[O-])ccc2C)ccc1O` (stereo not drawn), the TGI is 71.5 µM in the experiment with OVCAR-3 ovarian; over 100 µM in the experiment on SK-OV-3 ovarian; over 100 µM in the experiment with MALME-3M melanoma; over 100 µM in the experiment with SF-268 CNS; over 100 µM in the experiment on NCI-H23 lung; over 100 µM in the experiment with SW-620 colon. The TGI in the experiment on UO-31 renal, in the experiment with U251 CNS, in the experiment on CAKI-1 renal and with PC-3 prostate was over 100 µM in each case.
In the case of `CN1C=c2c3c(ccc2=C2C=CC4C=C5OCOC5=CC4=C21)OCO3` (stereo not drawn), the TGI in the experiment on OVCAR-3 ovarian was 2.16 µM and 3.2 µM; in the experiment on SK-OV-3 ovarian, 3.96 µM and 25.4 µM; in the experiment on MALME-3M melanoma, 3.05 µM and 5.92 µM; in the experiment with HCC-2998 colon it was 3.24 µM and 16.2 µM; in the experiment on SF-268 CNS, 3.46 µM and 6.76 µM; with NCI-H23 lung it was 2.95 µM and 10.3 µM. Moreover, the TGI in the experiment with SW-620 colon was 2.52 µM and 2.99 µM; with UO-31 renal, 2.79 µM and 5 µM; in the experiment with U251 CNS, 3.05 µM and 5.73 µM; in the experiment with NCI-H460 lung, 3.18 µM and 9.8 µM; in the experiment on CAKI-1 renal, 2.74 µM and 10.6 µM; with PC-3 prostate, 2.85 µM and 9.48 µM. In addition, the TGI in the experiment on SNB-75 CNS is 3.49 µM and 14.6 µM. For the same compound, the GI50 with SK-OV-3 ovarian is 1.85 µM and 12.7 µM; with HCC-2998 colon it was 1.56 µM and 6.55 µM; with SW-620 colon it was 1.25 µM; in the experiment with UACC-62 melanoma, 1.91 µM; with NCI-H460 lung, 1.63 µM and 3.16 µM; in the experiment on CAKI-1 renal it was 1.42 µM and 3.49 µM.
With `Cc1ccc2c(c1)SC1=Nc3sc4cc(C)ccc4[n+]3CN12`, the TGI in the experiment on OVCAR-3 ovarian is 6.97 µM; in the experiment on SK-OV-3 ovarian, over 100 µM; in the experiment on MALME-3M melanoma it was 4.63 µM; in the experiment on HCC-2998 colon, 6.62 µM; in the experiment with SF-268 CNS, over 100 µM; in the experiment on NCI-H23 lung, 13.6 µM. Also, the TGI is 53.1 µM in the experiment with SW-620 colon; 16.6 µM with UACC-62 melanoma; over 100 µM in the experiment on UO-31 renal; 19 µM with U251 CNS; over 100 µM in the experiment with NCI-H460 lung; over 100 µM in the experiment on PC-3 prostate. Further, in the experiment with SNB-75 CNS, the TGI stood at 64.5 µM.
For `Cc1ccc(O)c(Cc2nc3ccccc3nc2-c2cccc(Cl)c2)c1`, the TGI in the experiment on OVCAR-3 ovarian, in the experiment on SK-OV-3 ovarian, in the experiment on MALME-3M melanoma, in the experiment on HCC-2998 colon, in the experiment with SF-268 CNS and with NCI-H23 lung was over 100 µM each time. Moreover, the TGI in the experiment with SW-620 colon, in the experiment on UACC-62 melanoma, in the experiment with UO-31 renal, with U251 CNS, in the experiment with NCI-H460 lung and in the experiment with CAKI-1 renal was over 100 µM each time. The same compound showed a TGI with PC-3 prostate of over 100 µM.
As to `O=C(CSCC(=O)N/N=C/c1ccc2c(c1)OCO2)N/N=C/c1ccc2c(c1)OCO2`, the TGI with OVCAR-3 ovarian, with SK-OV-3 ovarian, with MALME-3M melanoma, with HCC-2998 colon, with SF-268 CNS and with NCI-H23 lung was over 100 µM throughout. Moreover, the TGI in the experiment with SW-620 colon, in the experiment with UACC-62 melanoma, in the experiment with UO-31 renal, in the experiment on U251 CNS, in the experiment on NCI-H460 lung and in the experiment with CAKI-1 renal was over 100 µM each time. Moreover, the TGI with PC-3 prostate and in the experiment on SNB-75 CNS was over 100 µM each time.
As for `COc1ccccc1/C=C/c1ccnc2ccccc12`, the TGI was determined as 26.7 µM in the experiment with OVCAR-3 ovarian; 29.7 µM with SK-OV-3 ovarian; 24.8 µM in the experiment on MALME-3M melanoma; 31.3 µM in the experiment on HCC-2998 colon; 29.4 µM with SF-268 CNS; 27.9 µM in the experiment on NCI-H23 lung. In addition, the TGI in the experiment with SW-620 colon is 26.9 µM; with UACC-62 melanoma it was 24.5 µM; with U251 CNS it was 24.2 µM; in the experiment on NCI-H460 lung, 28.9 µM; in the experiment on CAKI-1 renal, 40.3 µM; in the experiment on PC-3 prostate, 27.3 µM. The compound further displayed a TGI with SNB-75 CNS of 17 µM.
Regarding `CCCCc1ccc(N=C(N)N)cc1`, the TGI with OVCAR-3 ovarian was over 100 µM; in the experiment with SK-OV-3 ovarian, over 100 µM; in the experiment with MALME-3M melanoma it was over 100 µM; with HCC-2998 colon, 30.4 µM; with SF-268 CNS, over 100 µM; with NCI-H23 lung it was over 100 µM. The TGI with SW-620 colon is over 100 µM; in the experiment with UACC-62 melanoma, over 100 µM; with UO-31 renal, over 100 µM; in the experiment with U251 CNS, over 100 µM; in the experiment on NCI-H460 lung, 61.8 µM; with CAKI-1 renal, over 100 µM. Besides, in the experiment with PC-3 prostate, the TGI is over 100 µM.
Take `CC(=O)O[C@@H]1C[C@]2(C(=O)c3ccccc3)C(=O)C(=O)S[C@]12c1ccccc1`: the TGI with OVCAR-3 ovarian was over 100 µM; in the experiment on SK-OV-3 ovarian, over 100 µM; in the experiment with MALME-3M melanoma it was over 100 µM; in the experiment with HCC-2998 colon it was 75.1 µM; in the experiment with SF-268 CNS, over 100 µM; in the experiment with NCI-H23 lung, over 100 µM. For the same compound, the TGI in the experiment on SW-620 colon, with UACC-62 melanoma, in the experiment on UO-31 renal, with U251 CNS, with NCI-H460 lung and in the experiment with CAKI-1 renal was over 100 µM throughout. Further, the TGI with PC-3 prostate and in the experiment with SNB-75 CNS was over 100 µM throughout.
On to `C[n+]1cccc(NC(=O)c2ccc(NC(=O)C34CCC(C(=O)Nc5ccc(C(=O)Nc6ccc[n+](C)c6)cc5)(CC3)CC4)cc2)c1`, for which the TGI in the experiment with SF-268 CNS, in the experiment with NCI-H23 lung, with SW-620 colon, in the experiment with UACC-62 melanoma, with U251 CNS and in the experiment with NCI-H460 lung was over 100 µM each time. For the same compound, in the experiment on SNB-75 CNS, the TGI is 78.7 µM.
